Publication PMC6458995, “MAP4K4 Inhibition Promotes Survival of Human Stem Cell-Derived Cardiomyocytes and Reduces Infarct Size In Vivo” (Cell Stem Cell, 2019)

Legend:
Assay in all cases: Dundee kinase panel
Assay type in all cases: biochemical
Details in all cases: for remaining activity at 1 µM: read-out: residual activity
[1] = target: T1, PRAK (Homo sapiens, UniProt Q8IW41)
T1 construct: lines 1-140) and Reaction Biology
T1 sequence (Q8IW41 1-473): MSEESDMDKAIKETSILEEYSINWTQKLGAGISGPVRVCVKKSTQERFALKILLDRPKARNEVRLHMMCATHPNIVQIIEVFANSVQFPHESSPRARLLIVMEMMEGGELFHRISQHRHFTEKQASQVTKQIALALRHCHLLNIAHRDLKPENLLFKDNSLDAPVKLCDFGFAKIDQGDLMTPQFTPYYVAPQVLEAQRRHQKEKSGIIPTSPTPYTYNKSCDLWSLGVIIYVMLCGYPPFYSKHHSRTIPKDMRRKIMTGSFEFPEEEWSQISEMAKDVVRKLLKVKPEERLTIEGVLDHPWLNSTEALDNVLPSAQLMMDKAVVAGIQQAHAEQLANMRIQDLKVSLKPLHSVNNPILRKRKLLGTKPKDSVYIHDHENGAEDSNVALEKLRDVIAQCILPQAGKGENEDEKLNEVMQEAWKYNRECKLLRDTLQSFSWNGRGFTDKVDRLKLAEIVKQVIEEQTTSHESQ
Protocol: (§1) Compounds were screened at 1 μM. For key hits, pIC50 values were then determined by HTRF as above. […] Stability in mouse and human liver microsomes was determined by Cyprotex.

[2] = target: T2, PKCz (Homo sapiens, UniProt Q05513)
T2 construct: lines 1-140) and Reaction Biology
T2 sequence (Q05513 1-592): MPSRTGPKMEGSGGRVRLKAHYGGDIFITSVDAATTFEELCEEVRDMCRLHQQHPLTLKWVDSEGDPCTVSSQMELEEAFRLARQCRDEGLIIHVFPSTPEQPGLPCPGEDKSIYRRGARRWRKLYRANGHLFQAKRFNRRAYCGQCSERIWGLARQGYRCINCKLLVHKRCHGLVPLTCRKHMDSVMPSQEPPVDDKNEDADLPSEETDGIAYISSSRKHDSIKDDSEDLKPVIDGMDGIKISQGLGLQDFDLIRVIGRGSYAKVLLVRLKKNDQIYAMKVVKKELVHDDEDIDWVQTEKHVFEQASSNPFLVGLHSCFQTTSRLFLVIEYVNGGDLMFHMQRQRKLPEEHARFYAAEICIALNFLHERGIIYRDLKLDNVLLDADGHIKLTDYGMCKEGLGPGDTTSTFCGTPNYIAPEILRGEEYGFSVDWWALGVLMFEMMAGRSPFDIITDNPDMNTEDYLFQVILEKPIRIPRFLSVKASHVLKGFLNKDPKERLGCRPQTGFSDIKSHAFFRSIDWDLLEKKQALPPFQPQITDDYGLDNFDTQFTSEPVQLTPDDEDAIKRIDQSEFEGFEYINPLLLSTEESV
Protocol: as §1

[3] = target: T3, EF2K (Homo sapiens, UniProt O00418)
T3 construct: lines 1-140) and Reaction Biology
T3 sequence (O00418 1-725): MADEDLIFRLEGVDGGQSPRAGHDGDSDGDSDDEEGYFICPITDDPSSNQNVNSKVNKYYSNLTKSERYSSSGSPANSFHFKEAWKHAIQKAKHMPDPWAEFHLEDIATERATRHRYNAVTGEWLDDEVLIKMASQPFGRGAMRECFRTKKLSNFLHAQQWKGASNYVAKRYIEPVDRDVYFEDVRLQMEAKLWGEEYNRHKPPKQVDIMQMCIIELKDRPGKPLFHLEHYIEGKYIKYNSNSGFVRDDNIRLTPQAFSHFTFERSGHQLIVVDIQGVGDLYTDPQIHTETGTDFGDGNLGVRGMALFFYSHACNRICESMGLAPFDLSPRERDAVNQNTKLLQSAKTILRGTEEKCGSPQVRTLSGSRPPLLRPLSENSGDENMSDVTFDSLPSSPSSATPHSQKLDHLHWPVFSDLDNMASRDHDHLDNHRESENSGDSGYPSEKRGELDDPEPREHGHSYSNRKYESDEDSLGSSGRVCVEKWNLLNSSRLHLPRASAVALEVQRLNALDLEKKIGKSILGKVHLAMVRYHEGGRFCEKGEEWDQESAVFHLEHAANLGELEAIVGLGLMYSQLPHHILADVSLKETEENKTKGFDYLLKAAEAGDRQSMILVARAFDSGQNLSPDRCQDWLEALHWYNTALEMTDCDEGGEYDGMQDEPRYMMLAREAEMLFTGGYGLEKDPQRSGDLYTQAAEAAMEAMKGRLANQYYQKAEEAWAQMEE
Protocol: as §1

[4] = target: T4, TESK1 (Homo sapiens, UniProt Q15569)
T4 construct: lines 1-140) and Reaction Biology
T4 sequence (Q15569 whole entry): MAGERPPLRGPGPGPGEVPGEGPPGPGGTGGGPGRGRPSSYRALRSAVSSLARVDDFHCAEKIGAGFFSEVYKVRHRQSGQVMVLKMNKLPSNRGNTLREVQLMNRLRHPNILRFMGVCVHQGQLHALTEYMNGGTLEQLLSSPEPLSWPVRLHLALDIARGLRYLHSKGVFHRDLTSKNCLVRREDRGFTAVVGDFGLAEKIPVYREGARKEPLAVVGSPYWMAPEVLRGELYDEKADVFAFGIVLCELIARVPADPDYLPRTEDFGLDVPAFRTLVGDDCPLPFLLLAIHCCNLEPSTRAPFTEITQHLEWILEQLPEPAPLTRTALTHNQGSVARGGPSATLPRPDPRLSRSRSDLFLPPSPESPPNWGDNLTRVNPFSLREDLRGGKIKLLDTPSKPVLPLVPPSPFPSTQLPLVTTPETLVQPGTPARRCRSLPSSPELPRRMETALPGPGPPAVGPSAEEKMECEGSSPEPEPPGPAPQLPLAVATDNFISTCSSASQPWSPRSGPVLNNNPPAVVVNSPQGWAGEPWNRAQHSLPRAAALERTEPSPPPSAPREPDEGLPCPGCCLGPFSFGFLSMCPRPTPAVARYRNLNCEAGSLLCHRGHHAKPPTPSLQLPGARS
Protocol: as §1

[5] = target: T5, CLK2 (Homo sapiens, UniProt P49760)
T5 construct: lines 1-140) and Reaction Biology
T5 sequence (P49760 whole entry): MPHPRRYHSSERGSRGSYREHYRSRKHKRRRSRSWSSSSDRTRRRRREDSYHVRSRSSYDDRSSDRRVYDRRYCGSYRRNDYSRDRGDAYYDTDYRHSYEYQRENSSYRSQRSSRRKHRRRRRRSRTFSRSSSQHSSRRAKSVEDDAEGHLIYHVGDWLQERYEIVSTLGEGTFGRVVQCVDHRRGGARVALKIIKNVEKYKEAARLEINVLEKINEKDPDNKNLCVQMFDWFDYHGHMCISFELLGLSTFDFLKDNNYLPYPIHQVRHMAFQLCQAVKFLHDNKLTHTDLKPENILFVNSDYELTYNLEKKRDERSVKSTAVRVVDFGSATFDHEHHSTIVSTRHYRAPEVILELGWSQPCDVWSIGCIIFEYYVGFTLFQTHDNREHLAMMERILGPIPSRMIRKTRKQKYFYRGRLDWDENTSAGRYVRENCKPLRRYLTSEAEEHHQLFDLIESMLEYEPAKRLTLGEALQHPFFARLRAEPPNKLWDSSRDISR
Protocol: as §1

[6] = target: T6, EPH-B2 (Homo sapiens, UniProt P29323)
T6 construct: lines 1-140) and Reaction Biology
T6 sequence (P29323 19-1055): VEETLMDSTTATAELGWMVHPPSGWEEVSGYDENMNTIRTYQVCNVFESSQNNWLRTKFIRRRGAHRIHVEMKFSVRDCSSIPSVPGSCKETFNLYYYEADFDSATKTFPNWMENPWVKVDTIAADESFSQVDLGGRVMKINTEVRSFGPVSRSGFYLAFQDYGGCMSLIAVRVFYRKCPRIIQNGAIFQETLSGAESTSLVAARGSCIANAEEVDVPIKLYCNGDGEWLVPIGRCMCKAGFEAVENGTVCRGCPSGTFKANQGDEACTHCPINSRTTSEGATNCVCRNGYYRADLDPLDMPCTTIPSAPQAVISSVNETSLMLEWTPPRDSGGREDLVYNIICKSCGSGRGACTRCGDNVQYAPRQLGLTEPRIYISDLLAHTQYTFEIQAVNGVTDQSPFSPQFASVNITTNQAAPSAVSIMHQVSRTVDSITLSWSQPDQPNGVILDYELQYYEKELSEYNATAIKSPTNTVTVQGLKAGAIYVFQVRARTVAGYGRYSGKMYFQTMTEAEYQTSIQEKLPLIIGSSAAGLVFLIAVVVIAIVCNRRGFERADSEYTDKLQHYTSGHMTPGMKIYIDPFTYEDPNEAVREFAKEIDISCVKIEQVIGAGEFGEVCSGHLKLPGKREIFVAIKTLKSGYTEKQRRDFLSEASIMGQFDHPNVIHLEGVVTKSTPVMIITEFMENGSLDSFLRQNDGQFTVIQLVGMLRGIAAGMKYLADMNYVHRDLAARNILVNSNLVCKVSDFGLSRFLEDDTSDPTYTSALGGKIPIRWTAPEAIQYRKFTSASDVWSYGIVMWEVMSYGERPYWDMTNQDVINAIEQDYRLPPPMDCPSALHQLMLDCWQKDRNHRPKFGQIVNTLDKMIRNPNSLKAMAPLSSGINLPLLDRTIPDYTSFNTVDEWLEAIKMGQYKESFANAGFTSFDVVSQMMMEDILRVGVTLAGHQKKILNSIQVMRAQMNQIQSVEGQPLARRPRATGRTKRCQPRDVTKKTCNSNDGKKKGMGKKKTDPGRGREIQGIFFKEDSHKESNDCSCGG
Protocol: as §1

Molecule `COCCOc1ccc(-c2cn(-c3ccccc3)c3nc[nH]c(=O)c23)cc1` [DMX-5804, 5-[4-(2-methoxy-ethoxy)-phenyl]-7-phenyl-3,7-dihydro-pyrrolo[2,3-d]pyrimidin-4-one] has a remaining activity at 1 µM [1] of 92%, a remaining activity at 1 µM [2] of 121% and a remaining activity at 1 µM [3] of 104%. The remaining activity at 1 µM [4] was 90%, the remaining activity at 1 µM [5] was 73% and the remaining activity at 1 µM [6] was 102%.

`Oc1ncnc2c1c(-c1ccccc1)cn2-c1ccccc1` [F1386-0303, 5,7-diphenyl-7H-pyrrolo[2,3-d]pyrimidin-4-ol] showed a remaining activity at 1 µM [1] of 113%, a remaining activity at 1 µM [2] of 108% and a remaining activity at 1 µM [3] of 99%. The remaining activity at 1 µM [4] was 101%, the remaining activity at 1 µM [5] was 94% and the remaining activity at 1 µM [6] was 78%.

Work on `Nc1ncc(C(=O)NC2CN(C(=O)C3CC3)C2)c2ccc(-c3cccc(F)c3)nc12` [GNE-495] yielded a residual activity ([1]; 1 μM) of 91%, a residual activity ([2]; 1 μM) of 82% and a residual activity ([3]; 1 μM) of 120%. For the same molecule, the residual activity ([4]; 1 μM) was 72%, the residual activity ([5]; 1 μM) was 87% and the residual activity ([6]; 1 μM) was 102%.

In the case of `O=C1Nc2ccc(I)cc2/C1=C/c1cc(Br)c(O)c(Br)c1` [GW5074], the remaining activity at 1 µM [1] is reported as 93%, the remaining activity at 1 µM [2] is reported as 88% and the remaining activity at 1 µM [3] is reported as 57%. For the same molecule, the remaining activity at 1 µM [4] was 32%, the remaining activity at 1 µM [5] was 53% and the remaining activity at 1 µM [6] was 94%.

`O=C1Cc2c([nH]c3ccc(Br)cc23)-c2ccccc2N1` [Kenpaullone] gave a remaining activity at 1 µM [1] of 95%, a remaining activity at 1 µM [2] of 105% and a remaining activity at 1 µM [3] of 97%. The remaining activity at 1 µM [4] was 19%, the remaining activity at 1 µM [5] was 109% and the remaining activity at 1 µM [6] was 99%.
